Residues, ends and D or L forms follow the SMILES beside them.
Assays:
HepG2-2.2.15 cells = test: Cell viability (dye uptake) in the HBV assay; type: cell-based; settings: peptide 10 micrograms per ml
CEM-SS cells = test: Cytotoxicity (MTS cell viability) in the HIV-1 assay; settings: peptide 10 micrograms per ml
HIV-1IIIB = test: HIV-1 antiviral assay (CPE reduction) in CEM-SS cells; type: cell-based; settings: peptide 10 micrograms per ml; 6 days post-infection; MTS readout
[1] = tested on: Primary Human endothelial cells (HUVEC); test: Endothelial cell migration assay; type: cell-based; settings: 10 micrograms per ml, 22 hours
[2] = tested on: hepatitis B virus (HBV) ayw strain; test: HBV replication assay in HepG2-2.2.15 cells (TaqMan PCR of secreted HBV DNA); type: cell-based; settings: peptide 10 micrograms per ml, six days, HBV DNA in supernatant
RAW 264.7 cells = test: Phagocytosis assay (Fluorescein-labeled Escherichia coli, flow cytometry); type: cell-based, mouse; settings: 10 micrograms per ml, Fluorescein-labeled E. coli
Method: The samples were then analyzed by flow cytometry to determine the amount of phagocytosis as a function of brightness (the greater the phagocytic activity, the more fluorescence in the macrophage population). Data are reported as % positive and the mean fluorescence intensity (MFI) of positively stained cells.

in vitro [3] = settings: human, CEM-SS cells (uninfected; cells plus peptide only)
[4] = tested on: spleen cells of Ovalbumin-immunized Balb/c mice; test: Th1/Th2 cytokine profiling assay (Ovalbumin-restimulated spleen cells, CBA kit); type: cell-based, mouse; settings: 10 micrograms per ml; Ovalbumin restimulation; 72 hours
[5] = tested on: Human Peripheral Blood Mononuclear Cells (PBMC), T cell proliferation; test: T cell proliferation assay (PHA-stimulated PBMC, 3H-thymidine); settings: 10 micrograms per ml
Human A549 cells [6] = test: Apoptosis prevention assay (C2 ceramide, Annexin-5); type: cell-based; settings: 10 micrograms per ml pretreatment 30 min
Description: Human A549 cells (carcinomic human alveolar basal epithelial cells) were utilized in the experiments employing the Annexin-5 apoptosis assay.

[7] = tested on: human peripheral blood mononuclear cells (PBMC), cyclic AMP generation; test: cAMP induction assay (ELISA); type: cell-based; settings: 10 min at 37° C., forskolin 50 micrograms per ml
Method: The cAMP kit was used as an immunoassay for the quantitative determination of cyclic AMP generation in human peripheral blood mononuclear cells (PBMC). PBMC were placed in 96-well microtitier plates (50 microliters of cells at 4×10^6/ml) and 50 microliters of medium alone (background control), forskolin (cAMP positive control; 50 micrograms per ml), or test peptide were added. […] NaOH was added to neutralize the samples. Plates were centrifuged for 15 min at 2500 rpm and the supernatants removed. The supernatants (diluted 2-fold in assay buffer) were then assayed for the levels of cAMP by ELISA.

HCMV strain AD169 = test: HCMV plaque reduction assay in MRC-5 cells; settings: HCMV AD169 in MRC-5 cells; peptide 10 micrograms per ml; 7-10 days
in vitro [8] = settings: human, MRC-5 cells (embryonal lung fibroblasts)
[9] = Cell viability (dye uptake) in the HBV assay; type: cell-based; settings: human, HepG2-2.2.15 cells, peptide 10 micrograms per ml
[10] = tested on: Human Peripheral Blood Mononuclear Cells (PBMC), B cell proliferation; test: B cell proliferation assay (SAC plus IL-2 stimulated PBMC, 3H-thymidine); type: cell-based; settings: 10 micrograms per ml
HUVEC = test: Endothelial tube formation assay; type: cell-based, human; settings: 10 micrograms per ml, 20 hours
Description: Positive control was vehicle only.

[11] = tested on: macrophages differentiated from human PBMC, TNF alpha production; test: TNF alpha production assay (LPS-stimulated macrophages, ELISA); type: cell-based; settings: 10 micrograms per ml, lipopolysaccharide 200 ng/ml, overnight
Description: Not stimulated macrophages served as negative background control.

Human A549 cells [12] = test: Propidium iodide cell cycle assay; type: cell-based; settings: 10 micrograms per ml, 24 hours, FACS
Human A549 cells [13] = test: Apoptosis induction assay (Annexin-5); type: cell-based; settings: 24 hours
Method: Human A549 cells (carcinomic human alveolar basal epithelial cells) were utilized in the experiments employing the Annexin-5 apoptosis assay. […] Test peptide-micrograms per ml—were exposed for 24 hours to the A549 cells before they were analyzed for signs of apoptosis.

For `Nc1ccn([C@@H]2CS[C@H](CO)O2)c(=O)n1` [Compound 3TC, Lamivudine, reference compound], the “% Cell viability” value (HepG2-2.2.15 cells) was 95.8%.

For `Cc1cn([C@H]2C[C@H](N=[N+]=[N-])[C@@H](CO)O2)c(=O)[nH]c1=O` [AZT, reference compound], the “% Cell viability” value (CEM-SS cells) was 97% and the “% CPE reduction in HIV-1 infected CEM-SS cells” value (HIV-1IIIB) was 99%.

With `CC[C@H](C)[C@H](NC(=O)[C@H](C)NC(=O)CNC(=O)[C@H](CCCNC(=N)N)NC(=O)[C@H](C)NC(=O)[C@H](CC(C)C)NC(=O)[C@H](CCC(=O)O)NC(=O)[C@H](CC(C)C)NC(=O)[C@H](C)NC(=O)[C@@H](N)CCC(=O)O)C(=O)N[C@@H](Cc1ccccc1)C(=O)N[C@@H](CCC(N)=O)C(=O)N[C@@H](C)C(N)=O` [BINP] (H-EALELARGAIFQA-NH2) the “% inhibition of migration” value [1] was 8%, the “% inhibition of HBV replication in HEP G2 cells” value [2] was 8.2% and the “% of control phagocytosis” value (RAW 264.7 cells) was 134.3%. The viability at 10 micrograms per ml (in vitro [3]) was 99.1%, the “IFNγ spleen cells; TH1 response (% of control)” value [4] was 133.9 % of control and the “IL-2 spleen cells (% of control)” value [4] was 0.0 % of control. The “IL-4 spleen cells; TH2 response (% of control)” value [4] was 0.0 % of control, the “IL-5 spleen cells; TH2 response (% of control)” value [4] was 50.3 % of control and the “TNF-a spleen cells; TH1 response (% of control)” value [4] was 97.0 % of control. The “% of PHA induced Control” value [5] was 96.2%, the “% prevention of ceramide induced apoptosis” value (Human A549 cells [6]) was 0.0% and the “% of Forskolin (positive control) induced cAMP formation” value [7] was 44.3%. For the same compound, the “% plaque reduction” value (HCMV strain AD169) was 1.0%, the viability at 144 h (in vitro [8]) was 99.7% and the viability at 144 h, 10 micrograms per ml [9] was 96.9%. For the same compound, the “% CPE reduction in HIV-1 infected CEM-SS cells” value (HIV-1IIIB) was 0.0%, the “% of SAC/IL2 induced control” value [10] was 96.5% and the “% inhibition of tube formation” value (HUVEC) was −1%. For the same compound, the “% of LPS induction” value [11] was 102.3%, the “Cell cycle analysis G0/G1” value (Human A549 cells [12]) was 57.9 and the “Cell cycle analysis G2/M” value (Human A549 cells [12]) was 12.2. The “Cell cycle analysis S” value (Human A549 cells [12]) was 29.9 and the “% of induction” value (Human A549 cells [13]) was 0.2%.
